Assay results reported in patent US20080293931A1, “Methods and compositions for the removal of nucleic acid amplification inhibitors” (priority 2006, published 2008).
Where “and” joins values, the source holds several entries; their conditions need not be identical. Identical values can stand only once. Entries after “also recorded” stand apart in the source; their conditions may differ. Counter-ions that a name gives are not always drawn. Like-named read-outs stand apart in the source and are kept apart here.

Tests used:
E. coli DNA = assay: PCR of seeded E. coli DNA after PIR treatment of aqueous HA samples (decade of dilution necessary for successful PCR); conditions: for Typical dilution decade for PCR / range of dilutions (dilution decade for PCR): aqueous humic samples seeded with E. coli DNA; for PCR products imaged after gel electrophoresis (band intensity): aqueous HA samples seeded with E. coli DNA
Procedure: Consideration of dilution factors for successful PCR must also be reviewed. In untreated soil extracts containing DNA of interest, successful PCR of the extracted DNA may occur when the polymerase inhibitor is diluted sufficiently such that inhibition is suppressed and PCR may occur. Typical values for the dilution decade at which PCR is successful in samples containing humic materials and DNA of interest are often around decade four (1×10^4). Accordingly, a dilution factor of 10,000 would be necessary for successful PCR in a typical soil extract/sample. This magnitude of dilution may also impact PCR sensitivity for DNA/species already present at low concentrations and result in not identifying an organism that was present in the original sample extract.
Using this approach for presenting the HA removal data allows for the determination of a PIR compound's effectiveness for HA removal (ε) and compatibility for application in PCR systems via dilution data for PCR.

seeded E. coli DNA = assay: PCR after PIR treatment of soil extracts (dilution to achieve PCR); conditions: for dilution decade at which PCR is achieved, on average: 100 mM PIR, soil extracts (Los Alamos Airport Soil)
[1] = Solubility of PIR compounds in aqueous solution; type: physicochemical; conditions: for solubility: aqueous solution
[2] = Stability of PIR compound in aqueous solution
[3] = Humic acid (HA) removal from aqueous commercial HA solutions by PIR compounds, fluorimetric HA determination; design: key to ε values: ε = −log(1 − efficiency); efficiency = ([HA]i − [HA]f)/[HA]i; conditions: for performance as PIR compound (in words): commercial humic acid solutions; for Average Efficiency, ε / Avg Reduction Factor: aqueous humic samples seeded with E. coli DNA; for ε values: 1M BRT in phosphate buffer, 19 days storage, HA avg 10,200 mg/L
Procedure: Humic solutions were in 1×TAE buffer at RT with pH˜7. […] Samples from PIR experiments utilizing these materials were diluted, using 1×TAE, to concentrations falling within the linear response region representative of the humic material used.
In this study, when samples were interrogated for humic acid concentrations via fluorimetry, known concentrations of commercial humic acids were compared to known concentrations of humic standards.
FIG. 1 compares the HA removal from samples containing DNA of interest to the molar concentration of varied PIR compounds by plotting an HA reduction factor as the initial [HA] divided by [HA] following treatment with PIR compounds. The commercially available PIR kit, from Mo-BIO, is placed on FIG. 1 for comparison and was arbitrarily assigned a molar concentration of 1 for convenience. […] The data shown in FIG. 1 were generated from varied initial [HA], ranging from ˜5,000 to 300,000 mg/L HA. These varied initial [HA] values represent a “worst case” scenario and these are in comparison to initial [HA] in extractions from problematic soils generating humic acid concentrations typically less than 5,000 mg/L.
FIG. 2 plots the data from the same experiments represented in FIG. 1, but applying a different approach for data metric. FIG. 2 plots a dimensionless HA removal efficiency (or efficacy) value versus the decade of dilution necessary for successful PCR. The efficiency of HA removal is defined in equation 1 as the initial [HA] minus the final [HA] divided by the initial [HA]. This is essentially a percent removal approach.
Efficiency=[HA]i−[HA]f/[HA]; (1)
To further discriminate efficiency values greater than 0.99, the efficiency was subtracted from the integer value of 1, and the −log was taken of 1-efficiency to generate a non-negative value indicative of HA removal efficiency with greater level of discrimination and resolution of values with high degrees of HA removal. This is described by equation 2.

[4] = Humic acid removal from soil extracts (Los Alamos Airport Soil) by PIR compounds; conditions: 100 mM PIR, HA 7,600 mg/L
Procedure: Aqueous samples of humic solutions were interrogated via fluorimetry on a Jobin Jvon Spex Fluorolog II with an excitation wavelength of 471 nm, an emission wavelength of 529 nm, with slits @ 10 nm bandpass, pmt bias of 950V, 1 second integration per reading and 10 readings per sample or <0.1% RSD per sample. Humic solutions were in 1×TAE buffer at RT with pH˜7. […] Samples from PIR experiments utilizing these materials were diluted, using 1×TAE, to concentrations falling within the linear response region representative of the humic material used.

B. anthracis Sterne DNA = conditions: PIR (thiamine) treated; for B. anthracis per rxn: at 1st positive dilution; for 1st DNA dilution with positive PCR: spiked with B. anthracis Sterne DNA
[5] = PIR 1 M, HAi avg 6,500-12,300 depending on compound (Table 6 c2)
[6] = aqueous solutions, read-out: solubility in aqueous solutions (molar solubility)
[7] = starred values of column PIR, M (footnote of Table 6), read-out: maximum molar solubility

## Cc1ncc(CO)c(CN)c1O [PDA, Pyridoxamine]
E. coli DNA; 1M PDA in phosphate buffer, 30 days storage, 4 C., dark, HA avg ~10,000 mg/L
  Decade of dilution: 0
E. coli DNA; 1M PDA in phosphate buffer, 30 days storage, 25 C., dark, HA avg ~10,000 mg/L
  Decade of dilution: 0
E. coli DNA; 1M PDA in phosphate buffer, 30 days storage, 25 C., light, HA avg ~10,000 mg/L
  Decade of dilution: 0
E. coli DNA; 1M PDA in phosphate buffer, 30 days storage, −20 C., dark, HA avg ~10,000 mg/L
  Decade of dilution: 0
E. coli DNA; 2.9M PDA in phosphate buffer, 30 days storage, 4 C., dark, HA avg ~10,000 mg/L
  Decade of dilution: 0
E. coli DNA; 2.9M PDA in phosphate buffer, 30 days storage, 25 C., dark, HA avg ~10,000 mg/L
  Decade of dilution: 1
E. coli DNA; 2.9M PDA in phosphate buffer, 30 days storage, 25 C., light, HA avg ~10,000 mg/L
  Decade of dilution: 1
E. coli DNA; 2.9M PDA in phosphate buffer, 30 days storage, −20 C., dark, HA avg ~10,000 mg/L
  Decade of dilution: 0
E. coli DNA; 2.9M PDA solutions freshly prepared (Day 0)
  Decade of dilution: 0
E. coli DNA; [5]
  Typical dilution decade for PCR: 1
  range of dilutions (dilution decade for PCR): 0-2
E. coli DNA
  PCR products imaged after gel electrophoresis (band intensity): often low and weak
Seeded E. coli DNA
  dilution decade at which PCR is achieved, on average: 1.0
Seeded E. coli DNA; PIR treated soil samples
  PCR products following gel electrophoresis (band intensity): typically weak

## O=C(C[n+]1ccsc1)c1ccccc1 [PTB, Phenacyl Thiazolium Bromide, reference compound]
[1]; [6]
  solubility: < 1000 mM
[1]; [7]
  solubility: 1000 mM

## O=C(C[n+]1ccsc1)c1ccc([N+](=O)[O-])cc1.[Br-] [PTB-NO2, 4-Nitro-Phenacyl Thiazolium Bromide]
[2]
  stability in aqueous solutions: not stable
[2]; aqueous solutions
  time to orange/red precipitate following dissolution: approximately 1 hour
[3]
  performance as PIR compound (in words): did not perform well
[3]; listed as PTB-N
  performance as PIR compound (in words): poor performance

## Cc1ncc(C[n+]2csc(CCO)c2C)c(N)n1 [THI, Thiamine Hydrochloride]
[4]
  average efficiency values: 1.4
  average reduction factors: 45
E. coli DNA; [5]
  Typical dilution decade for PCR: 0
  range of dilutions (dilution decade for PCR): 0-3
Seeded E. coli DNA
  dilution decade at which PCR is achieved, on average: 1.8
B. anthracis Sterne DNA; soil “A”
  B. anthracis per rxn: ~10^4 cell equivalents
  1st DNA dilution with positive PCR: 10^0
B. anthracis Sterne DNA; soil “B”
  B. anthracis per rxn: ~10^4 cell equivalents
  1st DNA dilution with positive PCR: 10^0
B. anthracis Sterne DNA; soil “C”
  B. anthracis per rxn: ~10^4 cell equivalents
  1st DNA dilution with positive PCR: 10^0
[3]; [5]
  Average Efficiency, ε: 2.13
  Avg Reduction Factor: 258
Bacterial 16S rDNA
  improvement of purity of DNA samples: two orders of magnitude
  increase in purity of soil DNA extract: ≥ 10 fold
Bacterial 16S rDNA; Hydrochloride
  1st DNA dilution with positive PCR: 10^−2 and 10^−1
  DNA dilution with positive PCR: 10^0 and 10^−1

## Cc1ncc(C[n+]2csc(CCO[P@](=O)(O)OP(=O)(O)O)c2C)c(N)n1 [THI-PP, thiamine pyrophosphate]
E. coli DNA; PIR 0.3 M, HAi avg 14,000
  Typical dilution decade for PCR: 0
  range of dilutions (dilution decade for PCR): 0-3
[1]; [6]
  solubility: 300 mM
[1]; [7]
  solubility: 300 mM
[1]; aqueous solutions
  solubility in aqueous solutions (molar solubility): ~300 mM
[3]; PIR 0.3 M, HAi avg 14,000
  Average Efficiency, ε: 2.57
  Avg Reduction Factor: 384
[3]
  performance as PIR compound (in words): did not perform well; also recorded: poor performance

## Bromothiazole [BRT]
E. coli DNA; 1M BRT in phosphate buffer, 19 days storage, 4 C., dark, HA avg 10,200 mg/L
  Decade of dilution: 0
E. coli DNA; 1M BRT in phosphate buffer, 19 days storage, 25 C., dark, HA avg 10,200 mg/L
  Decade of dilution: 0
E. coli DNA; 1M BRT in phosphate buffer, 19 days storage, 25 C., light, HA avg 10,200 mg/L
  Decade of dilution: 0
E. coli DNA; 1M BRT in phosphate buffer, 19 days storage, −20 C., dark, HA avg 10,200 mg/L
  Decade of dilution: 0
E. coli DNA; [5]
  Typical dilution decade for PCR: 0
  range of dilutions (dilution decade for PCR): 0-3
E. coli DNA
  PCR products imaged after gel electrophoresis (band intensity): weak
[3]; 4 C., dark
  ε values: 1.99
[3]; 25 C., dark
  ε values: 2.45
[3]; 25 C., light
  ε values: 2.18
[3]; −20 C., dark
  ε values: 1.36
[3]; 1M BRT stored at room temperature, ambient lighting
  increase of PIR ability (HA reduction factor) on day 19 versus day zero: ~3 factor
[3]; 1M BRT stored at room temperature, kept in the dark
  increase of PIR ability (HA reduction factor) on day 19: greater than 2 factor
[3]; [5]
  Average Efficiency, ε: 2.21
  Avg Reduction Factor: 199
